Reference: ChEMBL document CHEMBL5131445, “Optimization of a novel piperazinone series as potent selective peripheral covalent BTK inhibitors” (Bioorg Med Chem Lett, 2022)
In brackets after ≈: the same amount, converted by molar mass.

Assays:
[1] = target: T1, Tyrosine-protein kinase BTK (Homo sapiens, UniProt Q06187); experiment: Inhibition of BTK (unknown origin)
[2] = Inhibition of CD69 expression on CD19 positive B cells in anti-IgD stimulated human whole blood; format: functional, tissue-based; conditions: CD19 positive B cell
[3] = Metabolic stability in human liver microsomes assessed as intrinsic clearance; format: ADME, Microsome; conditions: read-out: CLH
[4] = Metabolic stability in rat liver microsomes assessed as intrinsic clearance; format: ADME, Microsome; conditions: read-out: CLH
[5] = target: T1, Tyrosine-protein kinase BTK; experiment: Inhibition of pBTK in human whole blood; format: tissue-based
[6] = Plasma protein binding in human assessed as unbound fraction by rapid equilibrium dialysis method; format: ADME, cell-free
[7] = Plasma protein binding in rat assessed as unbound fraction by rapid equilibrium dialysis method; format: ADME, cell-free
[8] = target: Tyrosine-protein kinase Blk (Homo sapiens, UniProt P51451); experiment: Binding affinity to BLK (unknown origin) assessed as dissociation constant by KINOMEscan analysis
[9] = target: T2, Tyrosine-protein kinase TXK (Homo sapiens, UniProt P42681); experiment: Binding affinity to TXK (unknown origin) assessed as dissociation constant by KINOMEscan analysis
T2 sequence (P42681 whole entry): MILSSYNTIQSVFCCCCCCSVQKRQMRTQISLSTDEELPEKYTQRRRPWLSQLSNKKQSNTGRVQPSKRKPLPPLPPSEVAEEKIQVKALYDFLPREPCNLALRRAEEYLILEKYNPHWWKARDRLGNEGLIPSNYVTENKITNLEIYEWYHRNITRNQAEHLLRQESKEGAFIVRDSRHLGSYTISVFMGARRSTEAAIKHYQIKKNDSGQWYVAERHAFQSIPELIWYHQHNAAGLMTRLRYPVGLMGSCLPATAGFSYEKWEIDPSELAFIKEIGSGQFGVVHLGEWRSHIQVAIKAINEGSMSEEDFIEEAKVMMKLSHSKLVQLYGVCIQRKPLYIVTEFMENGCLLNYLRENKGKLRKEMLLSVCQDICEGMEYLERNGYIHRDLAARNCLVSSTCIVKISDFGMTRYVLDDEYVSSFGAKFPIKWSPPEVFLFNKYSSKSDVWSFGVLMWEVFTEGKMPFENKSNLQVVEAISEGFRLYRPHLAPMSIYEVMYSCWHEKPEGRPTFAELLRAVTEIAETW

[10] = Solubility of the compound at pH 7; format: physicochemical; conditions: buffer
[11] = Clearance in iv dosed Sprague-Dawley rat; format: ADME, organism-based; conditions: in vivo
[12] = target: Receptor tyrosine-protein kinase erbB-2 (Homo sapiens, UniProt P04626); experiment: Binding affinity to ERBB2 (unknown origin) assessed as dissociation constant by KINOMEscan analysis
[13] = target: T3, Tyrosine-protein kinase Tec (Homo sapiens, UniProt P42680); experiment: Binding affinity to TEC (unknown origin) assessed as dissociation constant by KINOMEscan analysis
T3 sequence (P42680 whole entry): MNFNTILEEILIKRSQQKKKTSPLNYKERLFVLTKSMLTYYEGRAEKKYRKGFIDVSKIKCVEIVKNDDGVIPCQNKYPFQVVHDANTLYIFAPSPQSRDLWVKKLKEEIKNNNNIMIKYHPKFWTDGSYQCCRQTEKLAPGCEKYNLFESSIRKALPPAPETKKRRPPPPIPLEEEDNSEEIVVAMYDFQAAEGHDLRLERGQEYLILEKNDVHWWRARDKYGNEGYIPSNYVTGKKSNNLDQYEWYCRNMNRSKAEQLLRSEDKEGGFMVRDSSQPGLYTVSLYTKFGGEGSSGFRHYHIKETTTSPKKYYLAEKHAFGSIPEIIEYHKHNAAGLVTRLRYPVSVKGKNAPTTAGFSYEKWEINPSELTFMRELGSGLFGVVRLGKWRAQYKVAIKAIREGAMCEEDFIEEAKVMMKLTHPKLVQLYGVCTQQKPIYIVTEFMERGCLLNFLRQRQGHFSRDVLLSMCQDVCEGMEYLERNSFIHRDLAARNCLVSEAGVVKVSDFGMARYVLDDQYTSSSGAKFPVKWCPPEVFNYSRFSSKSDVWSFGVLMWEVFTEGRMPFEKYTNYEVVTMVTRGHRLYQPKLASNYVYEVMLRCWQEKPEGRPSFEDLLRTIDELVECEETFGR

T1 sequence (Q06187 whole entry): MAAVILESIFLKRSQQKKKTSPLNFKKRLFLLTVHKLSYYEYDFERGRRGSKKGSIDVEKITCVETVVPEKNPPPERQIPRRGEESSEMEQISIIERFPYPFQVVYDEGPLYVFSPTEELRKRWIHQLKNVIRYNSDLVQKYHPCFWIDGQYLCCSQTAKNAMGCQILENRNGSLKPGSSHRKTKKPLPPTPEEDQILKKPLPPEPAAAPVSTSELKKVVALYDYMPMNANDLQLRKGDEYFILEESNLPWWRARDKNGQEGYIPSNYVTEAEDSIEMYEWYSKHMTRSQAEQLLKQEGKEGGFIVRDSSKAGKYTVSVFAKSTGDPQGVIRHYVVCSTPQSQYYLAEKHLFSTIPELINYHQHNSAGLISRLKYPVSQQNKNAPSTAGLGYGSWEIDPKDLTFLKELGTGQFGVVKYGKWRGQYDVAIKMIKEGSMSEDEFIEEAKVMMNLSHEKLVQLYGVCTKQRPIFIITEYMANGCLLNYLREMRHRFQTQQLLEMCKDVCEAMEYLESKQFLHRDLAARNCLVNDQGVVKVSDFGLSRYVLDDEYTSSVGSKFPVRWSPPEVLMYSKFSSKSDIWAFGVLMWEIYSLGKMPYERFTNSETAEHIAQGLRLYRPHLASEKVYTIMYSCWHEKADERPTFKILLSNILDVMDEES
Tyrosine-protein kinase Blk, sequence (P51451 whole entry): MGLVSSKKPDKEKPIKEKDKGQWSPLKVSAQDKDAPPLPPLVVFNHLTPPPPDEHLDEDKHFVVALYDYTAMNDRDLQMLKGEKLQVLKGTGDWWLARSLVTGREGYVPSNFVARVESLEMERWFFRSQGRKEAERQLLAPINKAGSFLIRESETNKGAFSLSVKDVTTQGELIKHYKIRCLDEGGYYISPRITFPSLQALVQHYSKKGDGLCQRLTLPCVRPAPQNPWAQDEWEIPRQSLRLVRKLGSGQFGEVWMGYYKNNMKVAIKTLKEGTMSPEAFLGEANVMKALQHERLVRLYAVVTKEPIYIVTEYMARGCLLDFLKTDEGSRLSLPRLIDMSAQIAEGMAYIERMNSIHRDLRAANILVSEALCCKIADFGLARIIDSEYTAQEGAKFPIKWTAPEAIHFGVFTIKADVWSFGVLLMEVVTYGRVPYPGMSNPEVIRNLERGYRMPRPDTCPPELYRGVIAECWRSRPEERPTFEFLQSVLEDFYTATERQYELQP
Receptor tyrosine-protein kinase erbB-2, sequence (P04626 whole entry): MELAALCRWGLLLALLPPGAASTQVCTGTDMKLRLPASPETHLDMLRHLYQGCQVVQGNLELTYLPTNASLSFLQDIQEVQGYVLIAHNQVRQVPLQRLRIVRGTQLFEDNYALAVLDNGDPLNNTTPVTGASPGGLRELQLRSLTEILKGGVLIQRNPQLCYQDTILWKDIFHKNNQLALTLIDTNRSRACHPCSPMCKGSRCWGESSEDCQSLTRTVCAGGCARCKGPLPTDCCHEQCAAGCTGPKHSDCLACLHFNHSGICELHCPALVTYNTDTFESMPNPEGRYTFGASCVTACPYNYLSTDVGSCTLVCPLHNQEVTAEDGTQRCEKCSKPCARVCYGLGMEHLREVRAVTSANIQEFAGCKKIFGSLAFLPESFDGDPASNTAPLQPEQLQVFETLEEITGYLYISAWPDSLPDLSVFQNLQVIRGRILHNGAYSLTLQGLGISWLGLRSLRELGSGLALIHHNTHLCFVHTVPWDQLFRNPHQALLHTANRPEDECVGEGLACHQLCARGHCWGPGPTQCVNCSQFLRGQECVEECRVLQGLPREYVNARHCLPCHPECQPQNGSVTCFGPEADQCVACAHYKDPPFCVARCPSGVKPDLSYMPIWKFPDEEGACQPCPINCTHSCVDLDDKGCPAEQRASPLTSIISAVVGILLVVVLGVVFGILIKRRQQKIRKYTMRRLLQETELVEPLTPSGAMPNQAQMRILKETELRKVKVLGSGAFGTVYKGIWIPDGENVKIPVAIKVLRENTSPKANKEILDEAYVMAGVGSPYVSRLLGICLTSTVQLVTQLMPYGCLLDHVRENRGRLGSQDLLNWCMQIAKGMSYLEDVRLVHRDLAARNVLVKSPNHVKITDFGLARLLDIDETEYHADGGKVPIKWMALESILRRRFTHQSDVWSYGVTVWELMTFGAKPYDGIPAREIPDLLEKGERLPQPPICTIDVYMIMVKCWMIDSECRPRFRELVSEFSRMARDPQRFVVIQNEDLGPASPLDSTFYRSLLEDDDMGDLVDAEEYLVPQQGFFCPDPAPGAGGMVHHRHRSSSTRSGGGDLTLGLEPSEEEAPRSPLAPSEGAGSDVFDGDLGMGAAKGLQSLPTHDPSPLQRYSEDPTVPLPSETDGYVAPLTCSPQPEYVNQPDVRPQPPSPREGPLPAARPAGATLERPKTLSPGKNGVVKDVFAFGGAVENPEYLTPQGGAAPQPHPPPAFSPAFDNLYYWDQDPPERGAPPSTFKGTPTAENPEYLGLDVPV

SMILES	IC50 [1] [nM]	IC50 [2] [nM]	CLint scaled [3] [mL/min/kg]	CLint scaled [4] [mL/min/kg]	also measured
C=CC(=O)N(C)CCOc1cncnc1-c1ccc(CN2CCN(CC3CCC3)CC2=O)c(C)c1	1.6	1080	384	1880	
C=CC(=O)N(C)CCOc1cncnc1-c1ccc(CN2CCN(CC(C)(C)C)CC2=O)cc1	17	4700	270	930	
CC(C)CN1CCN(Cc2ccc(-c3ccnc(Nc4cnn(CCO)c4)n3)cc2Cl)C(=O)C1	4				IC50 [5]: 990 nM
C=CC(=O)N(C)CCOc1cncnc1-c1ccc(CN2CCN(CC(C)C)CC2=O)c(C)c1	0.83	130	444	2000	fraction unbound [6]: 0.24; fraction unbound [7]: 0.07
CC#CC(=O)N1CCC[C@H]1c1nc(-c2ccc(C(=O)Nc3ccccn3)cc2)c2c(N)nccn12 [ACALABRUTINIB]					Kd [8]: 0.018 µM; Kd [9]: 24 nM
C=CC(=O)N(C)CCOc1cnccc1-c1ccc(CN2CCN(CC)CC2=O)c(C)c1	32	4410	113	591	
C=CC(=O)N(C)CCOc1cncnc1-c1ccc(CN2CCN(CC(C)(C)C)CC2=O)c(C)c1	1.35	630	1370	2500	fraction unbound [6]: 0.14; solubility [10]: 13 µg/mL (≈ 27.1 µM)
C=CC(=O)N(C)CCOc1c(N)ncnc1-c1cc(F)cc(NC(=O)c2ccc(C3CC3)cc2F)c1C [REMIBRUTINIB]		36	80	97	clearance [11]: 214 mL/min/kg; Kd [8]: 30 µM; Kd [9]: 17000 nM
CC(=O)N(C)CCOc1cncnc1-c1ccc(CN2CCN(CC(C)(C)C)CC2=O)c(C)c1	1720	> 10000	530	1500	fraction unbound [6]: 0.31
CC(C)CN1CCN(Cc2ccc(-c3ccnc(Nc4cnn(CCO)c4)n3)cc2C(F)(F)F)C(=O)C1	1				IC50 [5]: 120 nM
C=CC(=O)N(C)CCOc1cnccc1-c1ccc(CN2CCN(CC3CCC3)CC2=O)c(C)c1	1.2	1080	686	2260	
C=CC(=O)N(C)CCOc1cnccc1-c1ccc(CN2CCN(CC(C)C)CC2=O)c(C)c1	0.65	160	633	2340	
C=CC(=O)N(C)CCOc1c(-c2ccc(CN3CCN(CC(C)C)CC3=O)c(C)c2)ccnc1N	0.69	360	334	793	fraction unbound [6]: 0.29
C=CC(=O)N(C)CCOc1cncnc1-c1ccc(CN2CCN(CC(C)(C)C)CC2=O)c(F)c1	0.44	300	809	3680	
C=CC(=O)N(C)CCOc1cnccc1-c1ccc(CN2CCN(CC(C)(C)C)CC2=O)c(C)c1	0.44	300	809	3680	fraction unbound [6]: 0.11; solubility [10]: 55 µg/mL (≈ 115 µM)
C=CC(=O)N(C)CCOc1cnccc1-c1ccc(CN2CCN(CCC)CC2=O)c(C)c1	4.8	890	286	1540	
C=CC(=O)N(C)CCOc1cnccc1-c1ccc(CN2CCN(C(C)C)CC2=O)c(C)c1	2.9	920	135	1240	
C=CC(=O)N(C)CCOc1cncnc1-c1ccc(CN2CCN(CC3(C)CC3)CC2=O)c(C)c1	0.98	130	559	2680	
C=CC(=O)N(C)CCOc1cncnc1-c1ccc(CN2CCN(CC(F)(F)F)CC2=O)c(C)c1	12	1990	316	1110	
C=CC(=O)N(C)CCOc1cnccc1-c1ccc(CN2CCN(C)CC2=O)c(C)c1	315	> 10000	95	620	
C=CC(=O)N(C)CCOc1cncnc1-c1ccc(CN2CCN(C3CCOC3)CC2=O)c(F)c1 (stereo not drawn)	268	> 10000	81	308	
C=CC(=O)N1CCC([C@@H]2CCNc3c(C(N)=O)c(-c4ccc(Oc5ccccc5)cc4)nn32)CC1 [ZANUBRUTINIB]					Kd [12]: 76 nM; Kd [13]: 18 nM; Kd [9]: 980 nM
CC(C)(C)CN1CCN(Cc2ccc(-c3ccnc(Nc4cnn(CCO)c4)n3)cc2C(F)(F)F)C(=O)C1	0.4				IC50 [5]: 480 nM

More lines, main results first:

IC50 [1] [nM]	IC50 [2] [nM]	CLint scaled [3] [mL/min/kg]	CLint scaled [4] [mL/min/kg]	SMILES	also measured
7300				Cc1cc(-c2ccnc(Nc3cnn(C)c3)n2)ccc1CN1CCN(CC2CN(C)C2)CC1=O	
3				Cc1cc(-c2ccnc(Nc3cnn(CCO)c3)n2)ccc1CN1CCN(CC(C)C)CC1=O	IC50 [5]: 590 nM
7				Cc1cc(-c2ccnc(Nc3cnn(C4CN(C)C4)c3)n2)ccc1CN1CCN(CC(C)(C)C)CC1=O	IC50 [5]: 2650 nM
80				Cc1cc(-c2ccnc(Nc3cnn(C)c3)n2)ccc1CN1CCN(CC2CN(O)C2)CC1=O	
11				Cc1cc(-c2ccnc(Nc3cnn(C)c3)n2)ccc1CN1CCN(C2CCC2)CC1=O	
1	> 10000	228	493	Cc1cc(-c2ccnc(Nc3cnn(C)c3)n2)ccc1CN1CCN(CC(C)(C)C)CC1=O	IC50 [5]: 1050 nM; fraction unbound [6]: 0.014; solubility [10]: 11 µg/mL (≈ 24.6 µM)
520				CCN1CCN(Cc2ccc(-c3ccnc(Nc4cnn(C)c4)n3)cc2C)C(=O)C1	
160				Cc1cc(-c2ccnc(Nc3cnn(C)c3)n2)ccc1CN1CCN(CC(F)(F)F)CC1=O	
7				Cc1cc(-c2ccnc(Nc3cnn(C4CN(C)C4)c3)n2)ccc1CN1CCN(CC(C)C)CC1=O	IC50 [5]: 350 nM
3				Cc1cc(-c2ccnc(Nc3cnn(C)c3)n2)ccc1CN1CCN(CC(C)C)CC1=O	IC50 [5]: 310 nM
7				Cc1cc(-c2ccnc(Nc3cnn(C)c3)n2)ccc1CN1CCN(CC2(C)CC2)CC1=O	
99				Cc1cc(-c2ccnc(Nc3cnn(C)c3)n2)ccc1CN1CCN(CC(C)(C)C#N)CC1=O	
28				Cc1cc(-c2ccnc(Nc3cnn(C)c3)n2)ccc1CN1CCN(CC2CC(F)(F)C2)CC1=O	
43				Cc1cc(-c2ccnc(Nc3cnn(C)c3)n2)ccc1CN1CCN(C(C)(C)C)CC1=O	
4200				Cc1cc(-c2ccnc(Nc3cnn(C)c3)n2)ccc1CN1CCN(CC2CNC2)CC1=O	
3				Cc1cc(-c2ccnc(Nc3cnn(C)c3)n2)ccc1CN1CCN(CC2CCC2)CC1=O	IC50 [5]: 930 nM
1				Cc1cc(-c2ccnc(Nc3cnn(CCO)c3)n2)ccc1CN1CCN(CC(C)(C)C)CC1=O	IC50 [5]: 810 nM
180				Cc1cc(-c2ccnc(Nc3cnn(C)c3)n2)ccc1CN1CCN(CC2CCOC2)CC1=O (stereo not drawn)	
